Measurements published in patent US20240400555A1 (Initial Therapeutics, Inc., priority 2023, published 2024).
pIC50: −log10 of the molar value.

System: MV-4-11 cells
Test: Cell Viability Assay in MV-4-11 Cells
Assay type: cell-based
Settings: Homo sapiens, MV4-11, 72 h, MV-4-11 cells, 72 h, Cell-Titer Glo; read-out: IC50
Summary of the method: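 MV-4-11 cells at 7,000/well in IMDM with 10% FBS, exposed to compound for 72 h. Viability by CellTiter-Glo luminescence, normalized to DMSO as 100%, fitted with a four-parameter curve.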

| pIC50 | SMILES |
| --- | --- |
| 6.40 | Cc1cc(-c2cc3c(N(C(=O)c4ccc(-n5nnc6cccnc65)cc4F)[C@@H]4CCCNC4)nccc3s2)cc(C)c1C(N)=O [Example 606, (R)-4-(3H-[1,2,3]triazolo[4,5-b]pyridin-3-yl)-N-(2-(4-carbamoyl-3,5-dimethylphenyl)thieno[3,2-c]pyridin-4-yl)-2-fluoro-N-(piperidin-3-yl)benzamide] |
| 6.96 | Cc1nnc(-c2ccc(C(=O)N(c3nccc4cc(Cl)cc(C)c34)[C@@H]3CCCNC3)cn2)o1 [Example 917, N-(6-chloro-8-methyl-1-isoquinolyl)-6-(5-methyl-1,3,4-oxadiazol-2-yl)-N-[(3R)-3-piperidyl]pyridine-3-carboxamide] |
| 7.08 | Cc1cccc2ccnc(N(C(=O)c3ccc(Nc4nccc(C5=CCN(C)CC5)n4)cc3F)[C@@H]3CCCNC3)c12 [Example 682, (R)-2-fluoro-4-((4-(1-methyl-1,2,3,6-tetrahydropyridin-4-yl)pyrimidin-2-yl)amino)-N-(8-methylisoquinolin-1-yl)-N-(piperidin-3-yl)benzamide] |
| 6.14 | CCc1cc(-c2cc3c(N(C(=O)c4ccc(-n5nnc6cccnc65)cc4F)[C@@H]4CCCNC4)nccc3s2)ccn1 [Example 461, N-[2-(2-ethyl-4-pyridyl)thieno[3,2-c]pyridin-4-yl]-2-fluoro-N-[(3R)-3-piperidyl]-4-(triazolo[4,5-b]pyridin-3-yl)benzamide] |
| 6.21 | Cc1ccc(C)c2c(N(C(=O)c3ccc(-c4cn(C)nn4)cc3)[C@@H]3CCCNC3)nccc12 [Example 861, N-(5,8-dimethyl-1-isoquinolyl)-4-(1-methyltriazol-4-yl)-N-[(3R)-3-piperidyl]benzamide] |
| 6.74 | Cc1nnc(-c2ccc(C(=O)N(c3nccc4cccc(C)c34)[C@@H]3CCCNC3)nc2)s1 [Example 783, (R)-5-(5-methyl-1,3,4-thiadiazol-2-yl)-N-(8-methylisoquinolin-1-yl)-N-(piperidin-3-yl)picolinamide] |
| 5.40 | COc1c(F)ccc2c(N(C(=O)c3ccc(-c4cn(C)nn4)cc3F)[C@@H]3CCCNC3)nccc12 [Example 874, 2-fluoro-N-(6-fluoro-5-methoxy-1-isoquinolyl)-4-(1-methyltriazol-4-yl)-N-[(3R)-3-piperidyl] benzamide] |
| 6.24 | O=C(c1ccc(-n2nnc3cccnc32)cc1F)N(c1nccc2sc(-c3ccc(B(O)O)cc3)cc12)[C@@H]1CCCNC1 [Example 569, [4-[4-[[2-fluoro-4-(triazolo[4,5-b]pyridin-3-yl)benzoyl]-[(3R)-3-piperidyl]amino]thieno[3,2-c]pyridin-2-yl]phenyl]boronic acid] |
| 6.34 | Cn1cc(-c2ccc(C(=O)N(c3nccc4sc(-c5ccc(C(N)C(F)(F)F)cc5)cc34)[C@@H]3CCCNC3)c(F)c2)nn1 (stereo partly drawn) [Example 613, N-(2-(4-(1-amino-2,2,2-trifluoroethyl)phenyl)thieno[3,2-c]pyridin-4-yl)-2-fluoro-4-(1-methyl-1H-1,2,3-triazol-4-yl)-N—((R)-piperidin-3-yl)benzamide] |
| 7.92 | Cc1cccc2ccnc(N(C(=O)c3ccc(Nc4nccc(N5CCC(C)(CO)CC5)n4)cc3F)[C@@H]3CCCNC3)c12 [Example 963, 2-fluoro-4-({4-[4-(hydroxymethyl)-4-methylpiperidin-1-yl]pyrimidin-2-yl}amino)-N-(8-methylisoquinolin-1-yl)-N-[(3R)-piperidin-3-yl]benzamide] |
| 7.07 | Cc1cccc2ccnc(N(C(=O)c3ccc(Nc4nccc(-c5ccccn5)n4)cc3F)[C@@H]3CCCNC3)c12 [Example 728, (R)-2-fluoro-N-(8-methylisoquinolin-1-yl)-N-(piperidin-3-yl)-4-((4-(pyridin-2-yl)pyrimidin-2-yl)amino)benzamide] |
| 6.80 | Cc1cc(F)cc2ccnc(N(C(=O)c3ccc(-c4cnn5cccnc45)cc3F)[C@@H]3CCCNC3)c12 [Example 627, (R)-2-fluoro-N-(6-fluoro-8-methylisoquinolin-1-yl)-N-(piperidin-3-yl)-4-(pyrazolo[1,5-a]pyrimidin-3-yl)benzamide] |
| 6.92 | Cc1csc2ccnc(N(C(=O)c3ccc(-c4nnn(C)c4C)cc3F)[C@@H]3CCCNC3)c12 [Example 782, (R)-4-(1,5-dimethyl-1H-1,2,3-triazol-4-yl)-2-fluoro-N-(3-methylthieno[3,2-c]pyridin-4-yl)-N-(piperidin-3-yl)benzamide] |
| 6.19 | O=C(c1ccc(-n2nnc3cccnc32)cc1F)N(c1nccc2sc(-c3ccccc3)cc12)[C@@H]1CCCNC1 [Example 464, 2-fluoro-N-(2-phenylthieno[3,2-c]pyridin-4-yl)-N-[(3R)-3-piperidyl]-4-(triazolo[4,5-b]pyridin-3-yl)benzamide] |
| 6.52 | O=C(c1ccc(-n2nnc3cccnc32)cc1F)N(c1nccc2sc(-c3cnn(-c4ccccn4)c3)cc12)[C@@H]1CCCNC1 [Example 435, 2-fluoro-N-[(3R)-3-piperidyl]-N-[2-[1-(2-pyridyl)pyrazol-4-yl]thieno[3,2-c]pyridin-4-yl]-4-(triazolo[4,5-b]pyridin-3-yl)benzamide] |
| 6.47 | CN1CCN(c2ccnc(Nc3ccc(C(=O)N(c4nccc5cc(F)ccc45)[C@@H]4CCCNC4)c(F)c3)n2)CC1 [Example 562, (R)-2-fluoro-N-(6-fluoroisoquinolin-1-yl)-4-((4-(4-methylpiperazin-1-yl)pyrimidin-2-yl)amino)-N-(piperidin-3-yl)benzamide] |

| pIC50 | SMILES |
| --- | --- |
| 6.52 | Cc1cccc2ccnc(N(C(=O)N3CCC(c4cn(C)nn4)CC3)[C@@H]3CCCNC3)c12 [Example 347, N-(8-methyl-1-isoquinolyl)-4-(1-methyltriazol-4-yl)-N-[(3R)-3-piperidyl]piperidine-1-carboxamide] |
| 7.29 | Cc1cccc2ccnc(N(C(=O)c3ccc(Nc4nccc(NCC#N)n4)cc3F)[C@@H]3CCCNC3)c12 [Example 950, (R)-4-((4-((cyanomethyl)amino)pyrimidin-2-yl)amino)-2-fluoro-N-(8-methylisoquinolin-1-yl)-N-(piperidin-3-yl)benzamide] |
| 6.89 | Cc1nnc(-c2ccc(C(=O)N(c3nccc4scc(C)c34)[C@@H]3CCCNC3)c(F)c2)s1 [Example 781, (R)-2-fluoro-4-(5-methyl-1,3,4-thiadiazol-2-yl)-N-(3-methylthieno[3,2-c]pyridin-4-yl)-N-(piperidin-3-yl)benzamide] |
| 5.59 | Cc1cccc2ccnc(N(C(=O)c3ccc(C#N)cc3-c3ccccn3)[C@@H]3CCCNC3)c12 [Example 335, 4-cyano-N-(8-methyl-1-isoquinolyl)-N-[(3R)-3-piperidyl]-2-(2-pyridyl)benzamide] |
| 5.89 | Cc1nnc(-c2ccc(C(=O)N(c3nccc4sc(C#CCCO)cc34)[C@@H]3CCCNC3)c(F)c2)s1 [Example 818, (R)-2-fluoro-N-(2-(4-hydroxybut-1-yn-1-yl)thieno[3,2-c]pyridin-4-yl)-4-(5-methyl-1,3,4-thiadiazol-2-yl)-N-(piperidin-3-yl)benzamide] |
| 6.54 | Cn1cc(-c2ccc3c(N(C(=O)c4ccc(-c5cn(C)nn5)cc4F)[C@@H]4CCCNC4)nccc3c2)cn1 [Example 445, (R)-2-fluoro-4-(1-methyl-1H-1,2,3-triazol-4-yl)-N-(6-(1-methyl-1H-pyrazol-4-yl)isoquinolin-1-yl)-N-(piperidin-3-yl)benzamide] |
| 6.74 | Cc1cccc2ccnc(N(C(=O)c3ccc(Nc4ncc(CO)cn4)cc3F)[C@@H]3CCCNC3)c12 [Example 322, (R)-2-fluoro-4-((5-(hydroxymethyl)pyrimidin-2-yl)amino)-N-(8-methylisoquinolin-1-yl)-N-(piperidin-3-yl)benzamide] |
| 6.47 | Cc1nc(Nc2ccc(C(=O)N(c3nccc4cccc(C)c34)[C@@H]3CCCNC3)c(F)c2)ncc1F [Example 754, (R)-2-fluoro-4-((5-fluoro-4-methylpyrimidin-2-yl)amino)-N-(8-methylisoquinolin-1-yl)-N-(piperidin-3-yl)benzamide] |
| 8.00 | Cc1cc(F)cc2ccnc(N(C(=O)c3ccc(-c4cn(C)nn4)cc3F)[C@@H]3CCCNC3)c12 [Example 474, (R)-2-fluoro-N-(6-fluoro-8-methylisoquinolin-1-yl)-4-(1-methyl-1H-1,2,3-triazol-4-yl)-N-(piperidin-3-yl)benzamide] |
| 5.72 | COc1ccc(C)c2c(N(C(=O)c3ccc(-c4nnc(C)s4)cn3)[C@@H]3CCCNC3)nccc12 [Example 870, N-(5-methoxy-8-methyl-1-isoquinolyl)-5-(5-methyl-1,3,4-thiadiazol-2-yl)-N-[(3R)-3-piperidyl]pyridine-2-carboxamide] |
| 7.39 | [2H]C([2H])([2H])Oc1cc(C)c2c(N(C(=O)c3ccc(-c4cn(CC)nn4)cc3F)[C@@H]3CCCNC3)nccc2c1 [Example 889, 4-(1-ethyltriazol-4-yl)-2-fluoro-N-[8-methyl-6-(trideuteriomethoxy)-1-isoquinolyl]-N-[(3R)-3-piperidyl]benzamide] |
| 6.66 | COc1cc(-c2cc3c(N(C(=O)c4ccc(-n5nnc6cccnc65)cc4F)[C@@H]4CCCNC4)nccc3s2)ccn1 [Example 460, 2-fluoro-N-[2-(2-methoxy-4-pyridyl)thieno[3,2-c]pyridin-4-yl]-N-[(3R)-3-piperidyl]-4-(triazolo[4,5-b]pyridin-3-yl)benzamide] |
| 5.68 | Cn1cc(-c2ccc(C(=O)N(c3nccc4cccc(CCc5cccnc5)c34)[C@@H]3CCCNC3)cc2)nn1 [Example 403, 4-(1-methyltriazol-4-yl)-N-[(3R)-3-piperidyl]-N-[8-[2-(3-pyridyl)ethyl]-1-isoquinolyl]benzamide] |
| 5.57 | Cc1cccc2ccnc(N(C(=O)c3ccc(-c4ccc[nH]c4=O)cc3)[C@@H]3CCCNC3)c12 [Example 332, (R)—N-(8-methylisoquinolin-1-yl)-4-(2-oxo-1,2-dihydropyridin-3-yl)-N-(piperidin-3-yl)benzamide] |
| < 5.00 | Cc1nccc(N)c1-c1ccc(C(=O)N(c2nccc3cccc(C)c23)[C@@H]2CCCNC2)c(F)c1 [Example 361, (R)-4-(4-amino-2-methylpyridin-3-yl)-2-fluoro-N-(8-methylisoquinolin-1-yl)-N-(piperidin-3-yl)benzamide] |
